Laboratory results: US20120015901A1, “METHODS AND PREPARATIONS FOR PROTECTING CRITICALLY ILL PATIENTS” (priority 2009, published 2012)
Read-outs that look alike come from different tables or passages of the source.

Experiments:
autophagy = experiment: Yeast autophagy measurements; type: cell-based
Text: Autophagy was monitored either by vacuolar localization of Atg8p using fluorescence microscopy of cells expressing an EGFP-Atg8 fusion protein (T. Kirisako et al. (1999) J Cell Biol 147, 435-446.) or by alkaline phosphatase (ALP) activity according to Kissova et al. (Kissova at al. (2004) J Biol Chem 279, 39068-39074) using BY4741 wild type strain transformed with and selected for stable insertion of pTN9 HindIII fragment (confirmed by PCR). In order to correct for intrinsic (background) ALP activity, BY4741 (without pTN9) have been simultaneously processed and ALP activity subtracted. For generation of EGFP-ATG8 constructs see section on Molecular Biology.

critically ill rabbits = experiment: Toxicity of spermidine, sequential up-down allocation; type: in vivo, rabbit
Procedure: The toxicity of spermidine was assessed using a sequential up-down allocation technique. The administered dose of spermidine was determined by the response of the previous animal to a higher or lower dose (with incremental/decremental steps per 300 mg/d; minimum dose 600 mg/d). When the animal survived until day 4, this was considered as absence of acute toxicity. Mortality during the first 3 days was considered as acute toxicity. When there was no acute toxic effect, the next included animal would receive 300 mg spermidine/day more. When there was an acute toxic effect, the next included animal would receive 300 mg/day less (until the starting dose as a minimum). […] The protocol was otherwise similar as in the experiments described previously.

[1] = system: chronologically aging wild type yeast cells; experiment: Spontaneous mutation frequency and budding index; type: cell-based; conditions: spermidine-treated cultures, 4 mM
Procedure: Spontaneous mutation frequency was determined based on the appearance of mutants able to form colonies on agar plates containing 60 mg/l L-canavanine sulfate according to Fabrizio et al. (Fabrizio et al. (2004) J Cell Biol 166, 1055-1067). Mutation rates were calculated per 10^6 living (colony forming on YEPD) cells. Budding index was assessed by counting the percentage of budded cells after 10 seconds of sonication on ice using Sonifier 250 from Benson (Duty Cycle: 35; Output Control: 2.5) in micrographs of no more than 40 cells. For each sample, at least 500 cells were evaluated.

[2] = system: parentally fed, hyperglycemic, burn-injured rabbits
Text: Our research group previously developed an animal model of critical illness that has shown to mimic the dynamic endocrine, immunological and metabolic changes characteristic of human critical illness. In this animal model we investigated the effect of critical illness on spermidine levels and the effects of spermidine-administration during critical illness on survival, organ function (clinical, biochemical, and cyto/histopathological effects), and on metabolic, inflammatory/immunological and cellular pathways. Animals were treated according to the “Principals of Laboratory Animal Care” formulated by the U.S. National Society for Medical Research and the “Guide for the Care and Use of Laboratory Animals” prepared by the National Institutes of Health. The protocol was approved by the K.U. Leuven Ethical Review Board for Animal Research. Adult male New Zealand White rabbits, weighing approximately 3 kg, were purchased from a local rabbitry, were housed individually with free access to water, hay and regular rabbit chow, and were exposed to artificial light for 14 h per day. This animal model of prolonged critical illness mimics the human condition (Weekers et al. (2003) Endocrinol 144, 5329-5338). Indeed, the critically ill animals undergo the same metabolic, immunological and endocrine disturbances and development of organ failure and muscle wasting as the human counterpart.
In our animal model, critical illness was induced by placing intravascular catheters, selectively destroying pancreatic β-cells by alloxan, followed by burn injury. […] The administration of alloxan was necessary to control both blood glucose and plasma insulin levels independently. The application of the burn wound is done 48 hours after alloxan-injection, at which time alloxan has done irreversible damage to the β-cells (selective β-cell necrosis, phase 4 after alloxan-injection). After imposing a burn wound, animals were brought to […], because this reflects most the human situation of critical illness. Non-injured, healthy rabbits served as control.
The effects of spermidine administration were investigated in parentally fed, hyperglycemic, burn-injured rabbits. The rabbits were purchased from a local rabbitry and weighed approximately 3-3.5 kg. The burn injury experiments were performed analoguous to those described above. After imposing the burn wound, animals received a continuous infusion of saline or spermidine (low dose ranging from 0.3-3 mg/day or high dose ranging from 30-300 mg/day).
At 09:00±1 h of […] (FIG. 3) animals were weighed, and under general anesthesia (30 mg/kg ketamine i.m. [Imalgene 1000; Merial, Lyon, France]; 0.15 ml/kg medetomidine i.m. [Orion, Espoo, Finland]), an ice-cold 10% solution of alloxan-monohydrate (150 mg/kg; Alloxan; Sigma-Aldrich, Bornem, Belgium) was injected slowly via a marginal ear vein. Afterward, the animals had free access to regular rabbit chow, hay and drinking water enriched with glucose to face alloxan-induced acute hypoglycemia.
At 10:00±1 h of Day 0 (FIG. 3), glycemia was measured to confirm hyperglycemia after alloxan (irreversible phase 4 after alloxan-injection). When glycemia exceeded 300 mg/dl, animals were considered eligible for the study. Under general anesthesia (see above), supplemented with 1.5 volume % isoflurane (Isoba Vet.; Schering-Plough, Brussels, Belgium) inhalation, animals were shaved and catheters were placed into the right jugular vein for intravenous infusion (4F; Vygon, Ecouen, France) and into the right carotid artery for blood sampling (5 Ch; Sherwood Medical, Tullamore, Ireland). A paravertebral block (5 ml Xylocaine 1%; Astra Zeneca, Brussels, Belgium) was performed and a full thickness burn injury of 20% body-surface area was imposed. Animals were then fitted to a homemade jacket to secure catheters and immediately returned to their cages.

[3] = preliminary results, spermidine versus saline

NCCCCNCCCN [spermidine]
autophagy (autophagy): strongly induces autophagy | time of death after starting the spermidine infusion (critically ill rabbits; continuous infusion of approximately 600 mg/day, both of two animals): 28 h | dose without acute toxic effects (critically ill rabbits; half of the toxic dose, highest dose of the pilot study): 300 mg/day | dose with acute toxic effects (critically ill rabbits; mortality during the first 3 days): 600 mg/day | dose with acute toxic effects (critically ill rabbits; per kg body weight): approx 200 mg/kg/day | dose without acute toxic effects (critically ill rabbits; per kg body weight): approximately 100 mg/kg/day | mutation frequency and budding index [1]: neither associated with an increased mutation frequency nor a higher budding index | mortality ([2]; 0.3 to 3 mg spermidine per day (groups D, E; 2 groups of 7 animals)): 28% | mortality ([2]; 30 to 300 mg spermidine per day (groups A, B, C; 3 groups of 8 animals)): 12.5% | plasma and tissue levels of spermidine ([2]; already seen with doses of 1-200 mg spermidine per kg per day): could restore both plasma and tissue levels of spermidine | survival rate ([2]; benefit most pronounced for the higher doses): marked improved survival rate | AST levels (marker of liver dysfunction) ([2]; days following the initial hit): rapid and profound decrease in AST-levels | rise in plasma creatinine (marker of kidney function) ([2]; high dose 30-300 mg/day, low dose 0.3-3 mg/day): could be prevented | plasma spermidine concentration ([2]; higher doses 30-300 mg/day): maintained or increased the plasma spermidine to (supra)normal values | mortality of the animals (in words) ([2]; higher doses 30-300 mg/day/rabbit): reduce the mortality | plasma spermidine concentration ([2]; low doses 0.3-3 mg/day): minimal or no effect | mortality of the animals (in words) ([2]; low doses 0.3-3 mg/day/rabbit): reduce the mortality | kidney protection ([2]; low doses of spermidine): renoprotection | autophagy (key proteins) [2, 3]: stimulation of autophagy | mitochondrial function [2, 3]: improvement of mitochondrial function | rise in ureum (marker of kidney dysfunction and muscle wasting) ([2]; spermidine infusion): could also be prevented | blood pH and lactate levels during illness ([2]; spermidine infusion versus saline): maintain a normal pH and normal lactate levels
